This note sets out measurements from patent publication US6448436B1, “Integrated process for the production of 2, 6-naphthalene dicarboxylic acid” (Mossi & Ghisolfi Overseas, S. A., priority 1999, dated 2002).

The nature of the data set: Solubility of the potassium salts equilibrated in aqueous potassium carbonate solutions. It is filed as physicochemical. An excerpt:
The data was gathered by equilibrating the potassium salts of 2-KNA and 2,6-K2NDA in aqueous solutions of potassium carbonate. The capped jars were contained in water baths to control the temperature and were magnetically stirred to speed the dissolution of the solids. Data derived from the solubility studies are outlined in Table 6.

Setting [1] is: 10 wt % K2CO3 aqueous solution, 35° C.
Where [2] appears, read: 15 wt % K2CO3 aqueous solution, 35° C.
[3] abbreviates: 20 wt % K2CO3 aqueous solution, 35° C.
[4] abbreviates: 20 wt % K2CO3 aqueous solution, 80° C.
[5] abbreviates: 25 wt % K2CO3 aqueous solution, 35° C.
The mark [6] stands for this setting: 25 wt % K2CO3 aqueous solution, 80° C.
Where [7] appears, read: 30 wt % K2CO3 aqueous solution, 35° C.
Setting [8] is: 30 wt % K2CO3 aqueous solution, 80° C.

As for `O=C([O-])c1ccc2cc(C(=O)[O-])ccc2c1.[K+].[K+]` [2,6-K2NDA, dipotassium salt of 2,6-NDA], the “Solubility Ratio 2,6-K2NDA/2-KNA” value (10 wt % K2CO3, 35° C.) is 0.41; the “Solubility Ratio 2,6-K2NDA/2-KNA” value (15 wt % K2CO3, 35° C.) stood at 0.52; the “Solubility Ratio 2,6-K2NDA/2-KNA” value (20 wt % K2CO3, 35° C.) is 1.13; the “Solubility Ratio 2,6-K2NDA/2-KNA” value (20 wt % K2CO3, 80° C.) was determined as 0.13; the “Solubility Ratio 2,6-K2NDA/2-KNA” value (25 wt % K2CO3, 35° C.) is given as 1.41; the “Solubility Ratio 2,6-K2NDA/2-KNA” value (25 wt % K2CO3, 80° C.) was 0.08. Also, the “Solubility Ratio 2,6-K2NDA/2-KNA” value reads like this: (30 wt % K2CO3, 35° C.) 1.33; (30 wt % K2CO3, 80° C.) 0.08. In addition, the Solubility by setting is: under setting [1], 13.8 wt %; under setting [2], 6.8 wt %; under setting [3], 2.4 wt %; under setting [4], 5.5 wt %; under setting [5], 0.6 wt %; under setting [6], 1.6 wt %. Besides, the Solubility runs as follows: under setting [7], 0.2 wt %; under setting [8], 0.6 wt %. Moreover, the “Temperature dependence of solubility” value (aqueous K2CO3 solutions, 35° C. vs 80° C.) is “only a weak function of temperature”.
As to `O=C([O-])c1ccc2ccccc2c1.[K+]` [2-KN], the Solubility came to 33.9 wt % under setting [1]; 13.2 wt % under setting [2]; 2.1 wt % under setting [3]; 41.1 wt % under setting [4]; 0.4 wt % under setting [5]; 19.2 wt % under setting [6]. Besides, the Solubility under setting [7] was 0.2 wt % and the Solubility under setting [8] was found to be 7.4 wt %.
